Experimental data taken from the supplement of paper PMC10290057.
Counter-ions that a name gives are not always drawn.

What was measured:
HCT116 [1] = assay: efficacy (fitted maximal change in viability relative to DMSO control); higher = less cytotoxic (negative = loss of viability); details: 48 h
HCT116 [2] = assay: AC50 cell viability (CellTiter-Glo); higher = less potent; details: 48 h
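For AC50 cell viability (CellTiter-Glo) in this document: HCT116 colorectal carcinoma cells screened at five concentrations per compound, luminescent viability scaled between DMSO wells and empty wells on each plate, curves fitted per compound.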
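For efficacy (fitted maximal change in viability relative to DMSO control) in this document: Luminescence-based viability readout, five doses per compound, normalized against on-plate DMSO and empty-well controls, followed by dose-response curve fitting for every drug.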

| SMILES | efficacy (HCT116 [1]) | AC50 cell viability (HCT116 [2]) |
| --- | --- | --- |
| Cc1nc(N)sc1-c1ccnc(Nc2ccc(N3CCOCC3)cc2)n1 [CYC-116] | -61% | 2.09 µM |
| CO[C@H]1C[C@H]2OC[C@@]2(OC(C)=O)[C@H]3[C@H](OC(=O)C4=CC=CC=C4)[C@]5(O)C[C@H](OC(=O)[C@H](O)[C@@H](NC(=O)OC(C)(C)C)C6=CC=CC=C6)/C(=C(/[C@@H](OC)C(=O)[C@]13C)C5(C)C)C [Cabazitaxel] | -57.4% | 0.00263 µM |
| COc1cc2nccc(Oc3ccc(NC(=O)C4(C(=O)Nc5ccc(F)cc5)CC4)cc3)c2cc1OC [Cabozantinib] | -65.4% | 7.42 µM |
| CC(N[C@H]1CCCC[C@@H]1NC(=O)c1ccc(Cl)cc1)c1cccc2ccccc12 (stereo partly specified) [Calhex-231] | -92.8% | 9.34 µM |
| C[C@@H](NCc1cc2ccccc2[nH]1)c1cccc2ccccc12 [Calindol] | -94.8% | 13.2 µM |
| Clc1ccc(C(c2ccc(Cl)cc2)[n+]2ccn(CC(OCc3ccc(Cl)cc3Cl)c3ccc(Cl)cc3Cl)c2)cc1 (stereo unspecified) [Calmidazolium chloride] | -100% | 10.5 µM |
| Cc1ccc([C@@H]2O[C@H](CO)[C@@H](O)[C@H](O)[C@H]2O)cc1Cc1ccc(-c2ccc(F)cc2)s1 [Canagliflozin] | -83.7% | 23.5 µM |
| C=CC(=O)Nc1cc2c(Nc3ccc(F)c(Cl)c3)ncnc2cc1OCCCN1CCOCC1 [Canertinib] | -116% | 14.8 µM |
| CCCCCC1=CC(=C([C@@H]2\C=C(C)/CC[C@H]2C(C)=C)C(=C1)O)O [Cannabidiol] | -84.5% | 20.9 µM |
| C[C@@]12C(=O)OC(=O)[C@]1(C)[C@H]1CC[C@@H]2O1 [Cantharidin] | -86.9% | 9.34 µM |
| CC(C)C[C@H](NC(=O)[C@H](CCc1ccccc1)NC(=O)CN1CCOCC1)C(=O)N[C@@H](Cc1ccccc1)C(=O)N[C@@H](CC(C)C)C(=O)[C@@]1(C)CO1 [Carfilzomib] | -93.6% | 0.0118 µM |
| CCCCCCNC(=O)N1\C=C(F)/C(=O)NC1=O [Carmofur] | -61.6% | 4.17 µM |
| CCNc1cc(NC2CCC(O)CC2)nc(Nc2ccc3c(ccn3Cc3ccccc3)c2)n1 (stereo unspecified) [Cdk4/6 Inhibitor IV] | -51.1% | 20.9 µM |
| COc1cc2c(Oc3ccc4[nH]c(C)cc4c3F)ncnc2cc1OCCCN1CCCC1 [Cediranib] | -111% | 14.8 µM |
| Cc1ccc(-c2cc(C(F)(F)F)nn2-c2ccc([S+](N)(=O)[O-])cc2)cc1 [Celecoxib] | -77.8% | 18.6 µM |
| C/C=C(\C)C(=O)N[C@@H](c1ccccc1)[C@@H](O)C(=O)O[C@H]1C[C@@]2(O)[C@@H](OC(=O)c3ccccc3)[C@@H]3[C@]4(OC(C)=O)CO[C@@H]4C[C@H](O)[C@@]3(C)C(=O)[C@H](OC(C)=O)C(=C1C)C2(C)C [Cephalomannine] | -63.5% | 0.0263 µM |
| Cc1cc(Nc2ncc(Cl)c(Nc3ccccc3[S+](=O)([O-])C(C)C)n2)c(OC(C)C)cc1C1CCNCC1 [Ceritinib] | -115% | 13.2 µM |
| C/C=C/C/C=C/CCC(=O)[C@H]1O[C@H]1C(N)=O [Cerulenin] | -80.2% | 16.6 µM |
| CNCCCOc1cc(F)c(-c2c(Cl)nc3ncnn3c2N[C@@H](C)C(F)(F)F)c(F)c1 [Cevipabulin] | -60.6% | 0.0525 µM |
| Nc1ccc(F)cc1NC(=O)c1ccc(CNC(=O)/C=C/c2cccnc2)cc1 [Chidamide] | -90.4% | 5.9 µM |

| SMILES | efficacy (HCT116 [1]) | AC50 cell viability (HCT116 [2]) |
| --- | --- | --- |
| N=C(NCCCCCCNC(=N)NC(=N)Nc1ccc(Cl)cc1)NC(=N)Nc1ccc(Cl)cc1 [Chlorhexidine] | -93.5% | 20.9 µM |
| Oc1c(Cl)cc(Cl)c2cccnc12 [Chloroxine] | -86.7% | 13.2 µM |
| OC1=CC2=C(C(=C1)O)C(=O)\C=C(/O2)C3=CC=CC=C3 [Chrysine] | -49.1% | 20.9 µM |
| CC(C)C(=O)OCC(=O)[C@@]12O[C@@H](O[C@@H]1C[C@H]3[C@@H]4CC\C5=C\C(=O)\C=C/[C@]5(C)[C@H]4[C@@H](O)C[C@]23C)C6CCCCC6 [Ciclesonide] | -78.4% | 20.9 µM |
| CC/1=C/C(=O)N(O)/C(=C1)C2CCCCC2 [Ciclopirox] | -89.1% | 3.72 µM |
| C[C@@H](NCCCc1cccc(C(F)(F)F)c1)c1cccc2ccccc12 [Cinacalcet hydrochloride] | -92.6% | 16.6 µM |
| Nc1nc(Cl)nc2c1ncn2[C@H]1C[C@H](O)[C@@H](CO)O1 [Cladribine] | -55.8% | 0.295 µM |
| Clc1ccc(Cn2c(CN3CCCC3)nc3ccccc32)cc1 [Clemizole hydrochloride] | -93.1% | 23.5 µM |
| CCN(CC)CCOc1ccc(/C(=C(\Cl)c2ccccc2)c2ccccc2)cc1 [Clomifene citrate] | -90.7% | 8.33 µM |
| Clc1ccccc1C(c1ccccc1)(c1ccccc1)n1ccnc1 [Clotrimazole] | -81.6% | 20.9 µM |
| CN1CCN(CC1)\C2=N\C3=C(NC4=C2C=CC=C4)C=CC(=C3)Cl [Clozapine] | -99.6% | 20.9 µM |
| O=C(c1ccc(F)c(F)c1Nc1ccc(I)cc1F)N1CC(O)([C@@H]2CCCCN2)C1 [Cobimetinib] | -105% | 1.86 µM |
| COC/1=C/C=C2\C(=C/C1=O)[C@H](CCC3=CC(=C(OC)C(=C23)OC)OC)NC(C)=O [Colchicine] | -59.9% | 0.0661 µM |
| CN1CCc2c(n(Cc3ccc(C(=O)NO)cc3)c3ccccc23)C1 [Compound 7] | -98.9% | 26.3 µM |
| O=[S+]([O-])(Nc1ccc(-c2cccnc2)c2cccnc12)c1cccc(C(F)(F)F)c1 [Compound 22d] | -73.3% | 4.17 µM |
| Cc1nc2c([nH]1)-c1ccccc1N(C(=O)c1ccc(NC(=O)c3ccccc3-c3ccccc3)cc1)CC2 [Conivaptan hydrochloride] | -45.3% | 20.9 µM |
| COC1=C(OCCCN2CCOCC2)C=CC\3=C1/N=C(/NC(=O)C4=CN=C(N)N=C4)N5CC/N=C35 [Copanlisib] | -57.4% | 0.0679 µM |
| C=C1C(=O)OC2/C=C(/C)CC/C=C(/C)CCC12 (stereo unspecified) [Costunolide] | -86.2% | 20.9 µM |
| C[C@H](NC(=O)CCC(F)(F)F)C(=O)N[C@@H]1C(=O)N(CCO)c2ncccc2-c2ccccc21 [Crenigacestat] | -44.7% | 0.332 µM |
| CC1(COc2ccc3c(c2)ncn3-c2ccc3cccc(N4CCC(N)CC4)c3n2)COC1 [Crenolanib] | -104% | 2.95 µM |

| SMILES | efficacy (HCT116 [1]) | AC50 cell viability (HCT116 [2]) |
| --- | --- | --- |
| C[C@@H](Oc1cc(-c2cnn(C3CCNCC3)c2)cnc1N)c1c(Cl)ccc(F)c1Cl [Crizotinib] | -100% | 4.17 µM |
| CC(C)(O)/C=C\C(=O)[C@](C)(O)[C@H]1[C@H](O)C[C@]2(C)[C@@H]3CC=C4[C@@H](C=C(O)C(=O)C4(C)C)[C@]3(C)C(=O)C[C@@]12C [Cucurbitacin I] | -77.1% | 0.166 µM |
| COc1cc(/C=C/C(=O)CC(=O)/C=C/c2ccc(O)c(OC)c2)ccc1O [Curcumin] | -68% | 4.17 µM |
| C[C@H]1CCC/C=C/C2C[C@H](O)C[C@H]2[C@H](O)/C=C/C(=O)O1 (stereo partly specified) [Cyanein] | -91.1% | 0.235 µM |
| CN(C)CCC=C1C2=C(C=CC=C2)\C=C/C3=C1C=CC=C3 [Cyclobenzaprine hydrochloride] | -92.3% | 18.6 µM |
| OC[C@H]1O[C@@H]2[C@@H](OC\3=N\C(=N)\C=C/[N@@]23)[C@@H]1O [Cyclocytidine hydrochloride] | -59.3% | 0.186 µM |
| C[C@@H]1C[C@@H]([C@H](O)CC2CC(=O)NC(=O)C2)C(=O)[C@@H](C)C1 [Cycloheximide] | -68.6% | 0.468 µM |
| CN1CCC(CC1)=C2C3=C(C=CC=C3)\C=C/C4=C2C=CC=C4 [Cyproheptadine hydrochloride] | -81.9% | 23.5 µM |
| NC\1=N\C(=O)N(\C=C1)[C@@H]2O[C@H](CO)[C@@H](O)[C@@H]2O [Cytarabine] | -61.7% | 0.0742 µM |
| CCCCCCCCCCCCCC(=O)N[C@H](CO)[C@H](O)c1ccc([N+](=O)[O-])cc1 [D-NMAPPD] | -101% | 26.3 µM |
| ClC/1=C(NCCN2CCOCC2)/C(=O)C3=C(C=CC=N3)C1=O [DA-3003-1] | -90.7% | 5.9 µM |
| Nc1cccc([S+](=O)([O-])N2CCCN([S+](=O)([O-])c3ccc4c(c3)OCCO4)CC2)c1 [DASA-58] | -59.9% | 14.8 µM |
| CNC(=O)c1cc(Oc2ccc(NC(=O)Nc3cc(C(C)(C)C)nn3-c3ccc4ncccc4c3)c(F)c2)ccn1 [DCC-2036] | -76% | 11.8 µM |
| CCCCCN(CCC12CC3CC(CC(C3)C1)C2)C(=O)NCCCc1ccncc1 [DE-096] | -90.2% | 16.6 µM |
| COc1cc([C@@H]2c3cc4c(cc3[C@@H](O)C3COC(=O)C32)OCO4)cc(OC)c1O (stereo partly specified) [DMEP] | -52.3% | 0.235 µM |
| CN(C)/N=N/c1nc[nH]c1C(N)=O [Dacarbazine] | -45.8% | 10.5 µM |
| O=C(/C=C/c1ccc(CN(CCO)CCc2c[nH]c3ccccc23)cc1)NO [Dacinostat] | -89.1% | 0.0833 µM |
| COc1cc2ncnc(Nc3ccc(F)c(Cl)c3)c2cc1NC(=O)/C=C/CN1CCCCC1 [Dacomitinib] | -99.1% | 8.33 µM |
